Experimental data from ChEMBL document CHEMBL1201862, “PubChem BioAssay data set” (2004).
Active and inactive are the calls of the source.

How the values were obtained:
[1] = biological target: T1, Ubiquitin-conjugating enzyme E2 N (Homo sapiens, UniProt P61088); format: functional;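 also: Dose-response confirmation in a TR-FRET assay detecting UBC13-driven polyubiquitin chain formation, inhibition measured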
T1 sequence (P61088 whole entry): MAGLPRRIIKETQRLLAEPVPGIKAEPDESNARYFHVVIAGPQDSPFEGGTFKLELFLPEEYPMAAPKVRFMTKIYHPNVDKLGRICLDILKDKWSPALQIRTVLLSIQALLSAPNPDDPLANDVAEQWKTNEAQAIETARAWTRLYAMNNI

Insulin-degrading enzyme [2] = biological target: T2, Insulin-degrading enzyme (Homo sapiens, UniProt P14735); assay: activators of recombinant IDE enzyme, dose response, counter-screen for IDE activator project, biochemical, fluorescence polarization (AID 588681)
T2 sequence (P14735 whole entry): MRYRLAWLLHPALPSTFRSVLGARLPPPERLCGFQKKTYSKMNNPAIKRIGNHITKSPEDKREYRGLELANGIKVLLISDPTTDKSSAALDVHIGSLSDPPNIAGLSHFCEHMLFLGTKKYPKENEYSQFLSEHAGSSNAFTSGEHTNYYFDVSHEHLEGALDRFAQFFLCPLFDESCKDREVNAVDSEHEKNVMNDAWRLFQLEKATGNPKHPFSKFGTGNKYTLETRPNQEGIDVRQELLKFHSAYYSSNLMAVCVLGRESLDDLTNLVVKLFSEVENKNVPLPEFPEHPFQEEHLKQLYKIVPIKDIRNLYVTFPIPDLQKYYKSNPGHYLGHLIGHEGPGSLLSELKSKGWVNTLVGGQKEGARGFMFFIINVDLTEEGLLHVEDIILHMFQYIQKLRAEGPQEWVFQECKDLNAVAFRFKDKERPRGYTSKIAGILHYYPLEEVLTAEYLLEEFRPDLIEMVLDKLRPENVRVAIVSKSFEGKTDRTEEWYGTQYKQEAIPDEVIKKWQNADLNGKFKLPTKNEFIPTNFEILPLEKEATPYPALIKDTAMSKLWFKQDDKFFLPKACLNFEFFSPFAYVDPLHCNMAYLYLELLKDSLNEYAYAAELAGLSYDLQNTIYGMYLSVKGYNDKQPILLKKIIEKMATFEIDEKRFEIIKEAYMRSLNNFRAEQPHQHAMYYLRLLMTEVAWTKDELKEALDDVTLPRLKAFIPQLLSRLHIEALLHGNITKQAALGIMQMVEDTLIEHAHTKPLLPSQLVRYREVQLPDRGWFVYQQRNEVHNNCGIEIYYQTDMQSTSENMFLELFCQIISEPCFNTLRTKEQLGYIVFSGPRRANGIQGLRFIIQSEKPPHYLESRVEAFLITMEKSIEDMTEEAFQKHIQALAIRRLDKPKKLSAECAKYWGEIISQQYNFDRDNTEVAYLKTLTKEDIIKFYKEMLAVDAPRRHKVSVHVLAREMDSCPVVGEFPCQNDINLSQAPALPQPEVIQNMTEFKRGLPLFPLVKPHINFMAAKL

[3] = biological target: T3, Apoptotic protease-activating factor 1 (Homo sapiens, UniProt O14727); format: functional
T3 sequence (O14727 whole entry): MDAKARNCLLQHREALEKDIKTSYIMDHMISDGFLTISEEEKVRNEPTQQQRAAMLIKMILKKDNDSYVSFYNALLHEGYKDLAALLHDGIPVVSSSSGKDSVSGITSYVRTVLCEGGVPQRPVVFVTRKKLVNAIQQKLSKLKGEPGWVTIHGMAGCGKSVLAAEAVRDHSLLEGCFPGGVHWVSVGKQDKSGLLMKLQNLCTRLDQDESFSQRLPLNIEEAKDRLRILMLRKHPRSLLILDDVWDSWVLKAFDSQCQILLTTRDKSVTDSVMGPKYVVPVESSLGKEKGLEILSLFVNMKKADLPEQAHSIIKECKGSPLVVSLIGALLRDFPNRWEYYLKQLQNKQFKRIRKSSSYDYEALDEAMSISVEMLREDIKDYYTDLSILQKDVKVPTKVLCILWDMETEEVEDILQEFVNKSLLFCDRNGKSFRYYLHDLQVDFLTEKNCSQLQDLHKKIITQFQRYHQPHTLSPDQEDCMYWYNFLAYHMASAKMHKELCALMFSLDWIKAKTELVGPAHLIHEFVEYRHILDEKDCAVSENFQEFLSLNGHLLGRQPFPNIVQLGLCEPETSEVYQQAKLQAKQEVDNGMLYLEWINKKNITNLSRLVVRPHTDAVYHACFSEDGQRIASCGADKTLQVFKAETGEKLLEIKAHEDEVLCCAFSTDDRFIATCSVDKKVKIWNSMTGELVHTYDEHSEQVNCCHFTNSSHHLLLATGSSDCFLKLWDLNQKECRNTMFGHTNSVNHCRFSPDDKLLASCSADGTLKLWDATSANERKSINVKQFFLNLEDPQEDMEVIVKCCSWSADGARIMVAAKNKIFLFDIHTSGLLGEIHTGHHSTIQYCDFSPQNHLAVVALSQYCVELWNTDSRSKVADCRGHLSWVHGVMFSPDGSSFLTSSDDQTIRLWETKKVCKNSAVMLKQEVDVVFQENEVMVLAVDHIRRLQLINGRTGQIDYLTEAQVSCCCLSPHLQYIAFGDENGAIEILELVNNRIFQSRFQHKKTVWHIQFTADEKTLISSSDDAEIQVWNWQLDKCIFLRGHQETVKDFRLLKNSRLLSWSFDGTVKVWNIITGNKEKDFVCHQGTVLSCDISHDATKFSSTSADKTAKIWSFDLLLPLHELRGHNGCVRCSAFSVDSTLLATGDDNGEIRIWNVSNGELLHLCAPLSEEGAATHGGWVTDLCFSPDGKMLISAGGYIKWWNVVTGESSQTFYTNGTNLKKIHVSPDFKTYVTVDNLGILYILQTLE

Insulin-degrading enzyme [4] = biological target: T2, Insulin-degrading enzyme; assay: activators of endogenous IDE in HEK cells, dose response, cell-based, fluorescence polarization (AID 588439); format: functional
HEK293 [5] = assay: HEK cell cytotoxicity by LDH release, dose response, cytotoxicity control for IDE activator project, fluorescence, HEK cells (AID 588440); format: functional, cell-based; conditions: Homo sapiens;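 also: cytotoxicity by LDH release measuring loss of membrane integrity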
HEK293 [6] = assay: optical interference in Abeta FP readout, dose response, artefact control for IDE activator project, biochemical, fluorescence polarization (AID 588442); format: functional, cell-based; conditions: Homo sapiens
[7] = miR-122 activators in hepatoma reporter cells, dose response, cell-based, Huh7 psiCHECK-miR122, Renilla luciferase, cherry-picked (AID 651956); format: functional;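 also: huh7 hepatoma cells stably carrying a psiCHECK-2 miR-122 sensor plasmid; renilla luciferase signal reporting endogenous miR-122 activity after 48 h compound exposure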
[8] = inhibitors of HIV Env-driven cell fusion, dose response, cherry-pick (AID 652057); format: functional, cell-based
[9] = CEM21 lymphoblast cell cytotoxicity, dose response, cytotoxicity control for viral fusion inhibitor project, CellTiter-Glo luminescence, cherry-picked (AID 652042); format: functional, cell-based;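 also: potency for signal decrease meaning cytotoxicity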
[10] = ZM109 Env clade C HIV-1 fusion inhibitors, dose response, HeLa effector, CEM target cells, luciferase, cherry-pick (AID 652058); format: functional, cell-based
[11] = off-target signal loss in HeLa-CEM21 co-culture – HeLa F-luc CTL cells, cherry-picked, counter-screen for HIV-1 Env fusion inhibitor project, dose response (AID 652040); format: functional, cell-based;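 also: potency for signal decrease marking cytotoxic or nonspecific inhibition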
[12] = inhibitors of clade B AD8 Env fusion, dose response, cell-based, cherry-pick (AID 652062); format: functional;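 also: luciferase signal from cell-cell fusion driven by HIV-1 clade B AD8 Env; potency is for inhibitors of fusion seen as a drop in luminescence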
[13] = HEK293T cytotoxicity, dose response, cytotoxicity control for miR-122 modulator project, cell-based, inhibitor set, cherry-pick, set 2 (AID 720697); format: functional
[14] = HEK293T cytotoxicity, dose response, cytotoxicity control for miR-122 modulator project, cell-based, activator set, cherry-pick (AID 720690); format: functional;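 also: HEK293T human cells scored for general mammalian cytotoxicity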
[15] = Mycobacterium tuberculosis BioA enzyme inhibitor Measured in Biochemical System Using Plate Reader - 2163-02_Inhibitor_Dose_DryPowder_Activity.

For `FC(F)(F)c1cc(CCN2CCNC[C@@H]2CC2CCCCC2)cc(C(F)(F)F)c1`, which IC50 [1] is on record?
The IC50 was > 20 µM (inactive).

And the EC50 (Insulin-degrading enzyme [2])?
Its EC50 is > 54.7 µM (inactive).

What about the IC50 [3] of the same molecule?
Its IC50 is 62.5 µM (active).

What about the EC50 (Insulin-degrading enzyme [4]) of the same molecule?
Its EC50 is 17.6 µM (inactive).

What about the IC50 (HEK293 [5]) of the same molecule?
Its IC50 is 9.68 µM (active).

What about the EC50 (HEK293 [6]) of the same molecule?
Its EC50 is > 54.7 µM (inactive).

What about the AC50 [7] of the same molecule?
The AC50 was 23.8 µM (active).

And the AC50 [8]?
Its AC50 is 7.14 µM (active).

What about the AC50 [9] of the same molecule?
The AC50 was 7.74 µM (active).

And the AC50 [10]?
The AC50 was 11.5 µM (active).

What about the AC50 [11] of the same molecule?
Its AC50 is 11.2 µM (active).

And the AC50 [12]?
The AC50 was 17.6 µM (active).

And the AC50 [13]?
The AC50 was 8.59 µM (active).

What about the AC50 [14] of the same molecule?
The AC50 was 7.47 µM (active).

With `Cc1cccc(/C=C(\CCC(=O)O)c2nc3ccccc3s2)c1` as the molecule, how does the AC50 [15] read?
The AC50 was 14.5 µM (active).
